The text below walks through data of the supplement of paper PMC10307832.

Holding throughout (test): relative viability (nuclei count vs DMSO), 5 days (fraction); higher = more cells survive
Compound in one experiment: CC1CC(=O)N(C2=CN=C(N=C2N1C3CCCC3)NC4=C(C=C(C=C4)C(=O)NC5CCN(CC5)C)OC)C [NPK76-II-72-1]
The gist of the method: (§1)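 In 1536-well plates, lung cancer cell lines rested overnight at 37 °C before five library-drug doses (not always all listed), √10 apart, were pinned onto vehicle-anchored plates. Nuclei were counted with MetaXpress from 4× Hoechst images taken after 5 days without medium change. Viability compares treated-well with vehicle-well nuclei as a median over plates, and plates needed control CV below 25% plus at least one doubling to pass.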

Compound in a further experiment: CC[C@@H]1C(=O)N(C)c2cnc(Nc3ccc(C(=O)NC4CCN(C)CC4)cc3OC)nc2N1C1CCCC1 [BI-2536]
A digest of the protocol:
as §1

Compound in the experiment “BI-2536 + Navitoclax”: CC[C@@H]1C(=O)N(C)c2cnc(Nc3ccc(C(=O)NC4CCN(C)CC4)cc3OC)nc2N1C1CCCC1 [BI-2536] + CC1(C)CCC(c2ccc(Cl)cc2)=C(CN2CCN(c3ccc(C(=O)NS(=O)(=O)c4ccc(N[C@H](CCN5CCOCC5)CSc5ccccc5)c(S(=O)(=O)C(F)(F)F)c4)cc3)CC2)C1 [Navitoclax] (partner 0.5 µM)
A digest of the protocol:
(§2)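 Lung cancer cell lines in 1536-well plates got either a single drug or a fixed anchor-drug dose together with five library-drug doses (not always all listed) in √10 steps, by pin tool, on the day after seeding. Nuclei were counted after 5 days, and relative viability is the treated-to-vehicle ratio of nuclei counts. Values are medians of duplicate plates.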

Compound in experiment [1]: CC1CC(=O)N(C2=CN=C(N=C2N1C3CCCC3)NC4=C(C=C(C=C4)C(=O)NC5CCN(CC5)C)OC)C [NPK76-II-72-1] + CC(=O)Nc1cccc(-n2c(=O)n(C3CC3)c(=O)c3c(Nc4ccc(I)cc4F)n(C)c(=O)c(C)c32)c1 [Trametinib] (partner 0.02 µM)
A digest of the protocol:
as §2

As for NCI-H2170, the relative viability came to 0.939 in the experiment with NPK76-II-72-1 (0.01 µM); 0.977 with NPK76-II-72-1 (0.03162 µM); 0.928 in the experiment with NPK76-II-72-1 (0.1 µM); 0.71 with NPK76-II-72-1 (0.3162 µM); 1.11 with NPK76-II-72-1 (1 µM); 0.971 with BI-2536 (0.01 µM). Besides, the relative viability in the experiment with BI-2536 (0.03162 µM) was found to be 0.896; in the experiment with BI-2536 (0.1 µM), 0.273; with BI-2536 (0.3162 µM), 0.204; with BI-2536 (1 µM) it was 0.204; in the experiment with BI-2536 + Navitoclax (first compound 0.01 µM) it was 0.614; with BI-2536 + Navitoclax (first compound 0.03162 µM), 0.561. In addition, the relative viability with BI-2536 + Navitoclax (first compound 0.1 µM) is 0.367; with BI-2536 + Navitoclax (first compound 0.3162 µM), 0.167; with BI-2536 + Navitoclax (first compound 1 µM), 0.187; in experiment [1] (first compound 0.01 µM) it was 0.884; in experiment [1] (first compound 0.03162 µM), 0.934; in experiment [1] (first compound 0.1 µM), 0.93. In addition, the relative viability in experiment [1] (first compound 0.3162 µM) was found to be 0.654; in experiment [1] (first compound 1 µM), 0.892.
For the cell line NCI-H1395, the relative viability in the experiment with NPK76-II-72-1 (0.01 µM) amounted to 0.893; with NPK76-II-72-1 (0.03162 µM) it was 0.906; with NPK76-II-72-1 (0.1 µM), 0.953; in the experiment with NPK76-II-72-1 (0.3162 µM) it was 0.955; with NPK76-II-72-1 (1 µM) it was 0.993; in the experiment with BI-2536 (0.01 µM), 0.844. In addition, the relative viability with BI-2536 (0.03162 µM) turned out to be 0.817; with BI-2536 (0.1 µM), 0.435; with BI-2536 (0.3162 µM), 0.337; with BI-2536 (1 µM), 0.34; in the experiment with BI-2536 + Navitoclax (first compound 0.01 µM) it was 1.01; with BI-2536 + Navitoclax (first compound 0.03162 µM), 0.635. Moreover, the relative viability with BI-2536 + Navitoclax (first compound 0.1 µM) came to 0.732; in the experiment with BI-2536 + Navitoclax (first compound 0.3162 µM), 0.42; in the experiment with BI-2536 + Navitoclax (first compound 1 µM), 0.467; in experiment [1] (first compound 0.01 µM) it was 1.09; in experiment [1] (first compound 0.03162 µM), 1.01; in experiment [1] (first compound 0.1 µM) it was 1. Further, the values for the relative viability in experiment [1] (first compound 0.3162 µM) and in experiment [1] (first compound 1 µM) were 1.07 and 1.06, respectively.
As for NCI-H838, the relative viability with NPK76-II-72-1 (0.01 µM) is 0.912; in the experiment with NPK76-II-72-1 (0.03162 µM) it was 1.03; with NPK76-II-72-1 (0.1 µM), 0.954; in the experiment with NPK76-II-72-1 (0.3162 µM), 0.959; with NPK76-II-72-1 (1 µM), 1.02; in the experiment with BI-2536 (0.01 µM), 0.99. Also, the relative viability was found to be 0.946 with BI-2536 (0.03162 µM); 0.826 with BI-2536 (0.1 µM); 0.164 in the experiment with BI-2536 (0.3162 µM); 0.162 in the experiment with BI-2536 (1 µM); 1.11 with BI-2536 + Navitoclax (first compound 0.01 µM); 1.2 with BI-2536 + Navitoclax (first compound 0.03162 µM). For the same cell line, the relative viability with BI-2536 + Navitoclax (first compound 0.1 µM) stood at 0.634; in the experiment with BI-2536 + Navitoclax (first compound 0.3162 µM), 0.164; in the experiment with BI-2536 + Navitoclax (first compound 1 µM) it was 0.146; in experiment [1] (first compound 0.01 µM), 0.485; in experiment [1] (first compound 0.03162 µM), 0.575; in experiment [1] (first compound 0.1 µM), 0.513. Further, the relative viability came to 0.523 in experiment [1] (first compound 0.3162 µM) and 0.578 in experiment [1] (first compound 1 µM).
For CAL-12T, the relative viability turned out to be 0.933 in the experiment with NPK76-II-72-1 (0.01 µM); 1.02 in the experiment with NPK76-II-72-1 (0.03162 µM); 1.01 with NPK76-II-72-1 (0.1 µM); 0.927 with NPK76-II-72-1 (0.3162 µM); 1.15 with NPK76-II-72-1 (1 µM); 0.882 with BI-2536 (0.01 µM). For the same cell line, the relative viability with BI-2536 (0.03162 µM) was 0.849; in the experiment with BI-2536 (0.1 µM) it was 0.718; with BI-2536 (0.3162 µM), 0.159; with BI-2536 (1 µM), 0.198; in the experiment with BI-2536 + Navitoclax (first compound 0.01 µM), 1.22; in the experiment with BI-2536 + Navitoclax (first compound 0.03162 µM), 1.17. Moreover, the relative viability with BI-2536 + Navitoclax (first compound 0.1 µM) worked out at 0.834; in the experiment with BI-2536 + Navitoclax (first compound 0.3162 µM) it was 0.164; in the experiment with BI-2536 + Navitoclax (first compound 1 µM), 0.144; in experiment [1] (first compound 0.01 µM), 0.325; in experiment [1] (first compound 0.03162 µM), 0.346; in experiment [1] (first compound 0.1 µM) it was 0.362. Besides, the relative viability is 0.306 in experiment [1] (first compound 0.3162 µM) and 0.37 in experiment [1] (first compound 1 µM).
